# Reference: patent US8063234B2, “Substituted 7-sulfanylmethyl-, 7-sulfinylmethyl- and 7-sulfonylmethylindoles and the use thereof” (Bayer Schering Pharma Aktiengesellschaft, priority 2008, dated 2011)
# Target: T1, CYP3A4 (Homo sapiens, UniProt P08684)
# T1 construct: human liver microsomes (pool from various individuals); from tissue; host or cells: human liver microsomes (pool from various individuals)
# Assay: Assay to assess irreversible CYP3A4 inhibition (mechanism-based inhibition) in human liver microsomes
# Format: in vitro ADME
# Details: 2-20 μM, preincubation 0-50 min, 6β-hydroxytestosterone formation
# From the text: 8. Assay to Assess Irreversible CYP3A4 Inhibition
# Cytochrom P450 enzyme inhibition, especially irreversible enzyme inhibition, also referred to as mechanism-based inhibition (MBI), is an unwanted metabolic property of a substance which may, on concurrent administration of other medicaments, lead to considerable drug interactions. Criteria for the presence of an irreversible inhibition are a time-, concentration- and cofactor- (nicotinamide adenine dinucleotide phosphate, NADPH) dependent inhibition. To this end, the compounds of the invention are incubated in vitro with human liver microsomes, the influence on the CYP3A4 activity and the metabolic degradation of the novel active ingredient is determined, and the prototypical parameters kinact, Ki and the partition ratio r are ascertained therefrom.
# The compounds of the invention are incubated with concentrations of 2-20 μM. To this end, stock solutions of the active ingredients with a concentration of 0.2-2 mM are prepared in acetonitrile and then pipetted with a 1:100 dilution into the incubation mixture. The liver microsomes are incubated in 50 mM potassium phosphate buffer (pH 7.4) with and without NADPH-generating system consisting of 1 mM NADP^+, 5 mM glucose 6-phosphate and 1 unit of glucose 6-phosphate dehydrogenase, at 37° C. After defined preincubation times of 0-50 min, aliquots are removed from these mixtures, diluted 1:25 in a new incubation, and incubated in the presence of testosterone and new NADPH-generating system again for 20 min. These incubation mixtures are stopped with acetonitrile (final concentration about 30% v/v), and the protein is removed by centrifugation at about 15 000×g. The samples stopped in this way are either analyzed directly or stored at −20° C. until analyzed.
# The analysis takes place by high performance liquid chromatography with mass spectrometry detection (LC-MS). The formation of 6β-hydroxytestosterone as measure of CYP3A4 activity, and the test substance still remaining is quantified. The parameters kinact, Ki and the partition ratio r are determined therefrom so as to assess the novel active ingredients in relation to MBI.
# T1 sequence (P08684 whole entry): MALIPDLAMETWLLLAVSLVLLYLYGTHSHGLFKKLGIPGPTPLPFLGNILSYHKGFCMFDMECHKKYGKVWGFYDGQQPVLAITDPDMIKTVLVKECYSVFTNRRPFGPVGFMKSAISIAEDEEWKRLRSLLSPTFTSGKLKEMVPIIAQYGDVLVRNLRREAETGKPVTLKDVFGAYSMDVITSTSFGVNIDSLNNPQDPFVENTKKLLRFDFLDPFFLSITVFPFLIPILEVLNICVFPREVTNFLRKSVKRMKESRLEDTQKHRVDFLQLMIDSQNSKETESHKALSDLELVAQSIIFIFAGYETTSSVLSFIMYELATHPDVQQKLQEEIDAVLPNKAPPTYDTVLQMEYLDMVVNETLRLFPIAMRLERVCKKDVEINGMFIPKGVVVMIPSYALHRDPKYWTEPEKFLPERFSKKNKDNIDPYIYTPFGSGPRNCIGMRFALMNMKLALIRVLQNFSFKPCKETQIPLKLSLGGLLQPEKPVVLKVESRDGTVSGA
row,SMILES,Partition ratio r
1,"CS(=O)(=O)Cc1cccc2c(C(CCC#N)c3ccc(C(F)(F)F)cc3)c[nH]c12 (single isomer, unassigned) [Example 56-1, 4-{7-[(Methylsulfonyl)methyl]-1H-indol-3-yl}-4-[4-(trifluoromethyl)phenyl]butanonitrile]",100
2,"CS(=O)(=O)Cc1cc(F)cc2c(C(c3ccc(C(F)(F)F)cc3F)C3CC3C#N)c[nH]c12 (single isomer, unassigned) [Example 271-1-1, 2-({5-Fluoro-7-[(methylsulfonyl)methyl]-1H-indol-3-yl}[2-fluoro-4-(trifluoro-methyl)phenyl]methyl)cyclopropanecarbonitrile]",>200
3,"CS(=O)(=O)Cc1cc(F)cc2c(C(c3ccc(Cl)cc3F)C3CC3C#N)c[nH]c12 (single isomer, unassigned) [Example 273-1-2, 2-[(4-Chloro-2-fluorophenyl){5-fluoro-7-[(methylsulfonyl)methyl]-1H-indol-3-yl}methyl]cyclopropanecarbonitrile]",>200
4,"CS(=O)(=O)Cc1cc(F)cc2c(C(c3ccc(Cl)cc3)C3CC3C#N)c[nH]c12 (single isomer, unassigned) [Example 277-1-1, 2-[(4-Chlorophenyl){5-fluoro-7-[(methylsulfonyl)methyl]-1H-indol-3-yl}methyl]cyclopropane-carbonitrile]",>200
5,"CS(=O)(=O)Cc1cccc2c(C(CCC#N)c3ccc4sccc4c3)c[nH]c12 (centres unmarked) [Example 73, 4-(1-Benzothiophen-5-yl)-4-{7-[(methylsulfonyl)methyl]-1H-indol-3-yl}butanonitrile]",>500
6,"CS(=O)(=O)Cc1cccc2c(C3(C4CC4)CCc4cc(F)ccc43)c[nH]c12 (centres unmarked) [Example 107, 3-(1-Cyclopropyl-5-fluoro-2,3-dihydro-1H-inden-1-yl)-7-[(methylsulfonyl)methyl]-1H-indole]",>400
7,"CS(=O)(=O)Cc1cccc2c(C(c3ccc(F)cc3)c3ccc(C(F)(F)F)cc3)c[nH]c12 (centres unmarked) [Example 113, 3-{(4-Fluorophenyl) [4-(trifluoromethyl)phenyl]methyl}-7-[(methylsulfonyl)methyl]-1H-indole]",>500
8,"CCC(CCO)(c1ccc(Cl)cc1)c1c[nH]c2c(CS(C)(=O)=O)cccc12 (centres unmarked) [Example 147, 3-(4-Chlorophenyl)-3-{7-[(methylsulfonyl)methyl]-1H-indol-3-yl}pentan-1-ol]",90
9,"CS(=O)(=O)Cc1cccc2c(C(CCC#N)c3ccc4c(c3)OC(F)(F)O4)c[nH]c12 (centres unmarked) [Example 169, 4-(2,2-Difluoro-1,3-benzodioxol-5-yl)-4-{7-[(methylsulfonyl)methyl]-1H-indol-3-yl}butanonitrile]",>500
10,"CCC(CCC#N)(c1ccc(Cl)cc1)c1c[nH]c2c(CS(C)(=O)=O)cccc12 (centres unmarked) [Example 172, 4-(4-Chlorophenyl)-4-{7-[(methylsulfonyl)methyl]-1H-indol-3-yl}hexanonitrile]",120

# The next lines start with the values.
row,Partition ratio r,SMILES
1,220,"CS(=O)(=O)Cc1cccc2c(C(CCC#N)c3ccc(Cl)cc3F)c[nH]c12 (single isomer, unassigned) [Example 59-1, 4-(4-Chloro-2-fluorophenyl)-4-{7-[(methylsulfonyl)methyl]-1H-indol-3-yl}butanonitrile]"
2,250,"CS(=O)(=O)Cc1cccc2c(C(c3ccc(F)cc3)c3ccc(Cl)cc3F)c[nH]c12 (single isomer, unassigned) [Example 118-1, 3-[(4-Chloro-2-fluorophenyl)(4-fluorophenyl)methyl]-7-[(methylsulfonyl)methyl]-1H-indole]"
3,>200,"CS(=O)(=O)Cc1cccc2c(C(c3ccc(Cl)cc3)C3CC3(F)F)c[nH]c12 (single isomer, unassigned) [Example 261-1, 3-[(4-Chlorophenyl)(2,2-difluorocyclopropyl)methyl]-7-[(methylsulfonyl)methyl]-1H-indole]"
4,>200,"CS(=O)(=O)Cc1cc(F)cc2c(C(c3ccc(F)cc3Cl)C3CC3C#N)c[nH]c12 (single isomer, unassigned) [Example 266-1, 2-[(2-Chloro-4-fluorophenyl){5-fluoro-7-[(methylsulfonyl)methyl]-1H-indol-3-yl}methyl]cyclopropanecarbonitrile]"
